Laboratory results reported in patent US20230116602A1, “MCL1 INHIBITORS AND USES THEREOF” (California Institute of Technology, priority 2019, published 2023).
Read-outs that look alike come from different tables or passages of the source.

Columns and labels:
[1] = Maximum tolerated dose in mice; details: CD-1 athymic nude, mouse, in vivo, iv
Method: (§1) FIG. 1 are the results of an AMO-1 myeloma cell line xenograft study with a compound of Formula X and with an MCL1 inhibitor being tested in humans and available as catalog number HY-112218 on Oct. 2, 2020 (MedChemExpress LLC, New Jersey, USA). Eight mice were used per group, and mice were dosed by intravenous injection (IV) daily (QD) for the first 5 days of the study with various concentrations of the compound of Formula X or with HY-112218. The 10 mg/kg dose of HY-112218 and the 60 mg/kg dose of the compound of Formula X are about the maximum tolerated dose for mice and represent a theoretical efficacious dose for humans.

[2] = tested on: AMO-1 myeloma cell line xenograft; experiment: AMO-1 myeloma cell line xenograft study; assay type: in vivo; details: AMO-1 xenograft, mice, IV QD for the first 5 days
Method: FIG. 1 are the results of an AMO-1 myeloma cell line xenograft study with a compound of Formula X. Eight mice were used per group, and mice were dosed by intravenous injection (IV) daily (QD) for the first 5 days of the study with various concentrations of the compound of Formula X.
as §1
Xenograft models of human cancer cell lines were established in six-week-old CD-1 athymic nude mice by subcutaneous injection of 1.0-3.0×10^7 cells with or without 50% matrigel. […] Tumor xenografts were measured with calipers three times per week, and tumor volume (in mm^3) was determined by multiplying height×width×length. […] Data were analyzed using StudyLog software from StudyDirector (San Francisco, Calif.).

[3] = target: BCL2 (Homo sapiens, UniProt P10415); experiment: BCL2 affinity assay (competition binding, qPCR readout); details: recombinant BCL2, 11-point 3-fold dilution series
Sequence of BCL2 (P10415 whole entry): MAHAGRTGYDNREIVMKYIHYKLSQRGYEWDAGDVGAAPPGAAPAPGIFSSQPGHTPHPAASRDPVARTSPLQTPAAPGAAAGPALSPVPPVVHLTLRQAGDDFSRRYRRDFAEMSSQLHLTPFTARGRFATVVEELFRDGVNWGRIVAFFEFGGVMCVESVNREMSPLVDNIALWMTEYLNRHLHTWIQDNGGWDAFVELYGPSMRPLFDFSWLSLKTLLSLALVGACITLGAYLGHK
In short: (§2)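 Competition binding: DNA-tagged recombinant protein (E. coli BL21-derived or HEK-293), biotinylated peptide ligand-loaded streptavidin beads and compound incubated 1 hour at room temperature, 0.9% DMSO final. Bound protein eluted with 0.5 μM non-biotinylated ligand and quantified by qPCR; Kd from 11-point 3-fold dilution series.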

[4] = target: BCLXL (Homo sapiens, UniProt Q07817); experiment: BCLXL affinity assay (competition binding, qPCR readout); details: recombinant BCLXL, 11-point 3-fold dilution series
Sequence of BCLXL (Q07817 whole entry): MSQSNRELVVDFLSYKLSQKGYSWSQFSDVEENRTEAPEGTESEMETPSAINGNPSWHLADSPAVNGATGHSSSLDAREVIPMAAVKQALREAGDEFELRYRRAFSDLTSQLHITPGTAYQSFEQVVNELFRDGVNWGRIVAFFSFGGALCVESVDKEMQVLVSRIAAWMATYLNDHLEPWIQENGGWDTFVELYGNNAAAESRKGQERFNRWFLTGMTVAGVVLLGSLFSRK
In short: as §2

[5] = tested on: drug-resistant cell lines of Table 3; experiment: Cell line growth retardation assay, resistant cohort; assay type: cell-based, Human; details: arithmetic mean of IC50s over the resistant cohort of Table 3, 6 days growth, read-out: AvgRes IC50
In short: (§3)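 Cell lines classed as MCL1-inhibition sensitive or resistant were seeded, rested 24 h, then exposed to 10–0.0032 μM compound for 6 days. Cells were counted by imaging; growth inhibition was the ratio of population doublings with vs without compound from a pre-treatment baseline. IC50 from curve fits, averaged per cohort.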

[6] = target: MCL1 (Homo sapiens, UniProt Q07820); experiment: MCL1 affinity assay (competition binding, qPCR readout); details: recombinant MCL1, 11-point 3-fold dilution series
Sequence of MCL1 (Q07820 whole entry): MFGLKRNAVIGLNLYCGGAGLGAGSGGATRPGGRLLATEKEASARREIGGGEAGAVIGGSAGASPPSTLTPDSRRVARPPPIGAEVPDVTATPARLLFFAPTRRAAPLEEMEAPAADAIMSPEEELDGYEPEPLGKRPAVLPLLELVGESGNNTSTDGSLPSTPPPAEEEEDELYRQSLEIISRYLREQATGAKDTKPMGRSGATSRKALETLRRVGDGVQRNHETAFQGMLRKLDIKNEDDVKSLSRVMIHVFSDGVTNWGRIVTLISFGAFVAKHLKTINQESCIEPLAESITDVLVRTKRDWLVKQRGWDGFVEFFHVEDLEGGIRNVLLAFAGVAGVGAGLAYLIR
In short: as §2

[7] = tested on: drug-sensitive cell lines of Table 3; experiment: Cell line growth retardation assay, sensitive cohort; assay type: cell-based, Human; details: for IC50: arithmetic mean of IC50s over the sensitive cohort of Table 3, 6 days growth, read-out: AvgSen IC50; for Fold Diff: average IC50 of resistant cohort divided by average IC50 of sensitive cohort
In short: as §3

| Kd [3] | Kd [4] | Kd [6] | Compound | MTD at 5 days [1] | day of study at which treated tumors resumed growth [2] | IC50 [5] | IC50 [7] | Fold Diff [7] | IC50 ([5]; Homo sapiens, 144 h) | IC50 ([7]; Homo sapiens, 144 h) |
| --- | --- | --- | --- | --- | --- | --- | --- | --- | --- | --- |
| – | – | – | COc1ccccc1-c1nccc(COc2ccccc2C[C@@H](Oc2ncnc3sc(-c4ccc(F)cc4)c(-c4ccc(OCCN5CCN(C)CC5)c(Cl)c4C)c23)C(=O)O)n1 [HY-112218, (R)-2-((5-(3-chloro-2-methyl-4-(2-(4-methylpiperazin-1-yl)ethoxy)phenyl)-6-(4-fluorophenyl)thieno[2,3-d]pyrimidin-4-yl)oxy)-3-(2-((2-(2-methoxyphenyl)pyrimidin-4-yl)methoxy)phenyl)propanoic acid] | ~10 mg/kg | ~21 days | – | – | – | – | – |
| > 1500 nM | > 1500 nM | > 1500 nM | Cc1c(-c2c(-c3ccc(F)cc3)ncc3snc(O[C@H](Cc4ccccc4OCc4ccnn4CC(F)(F)F)C(=O)O)c23)ccc(OCCN2CCN(C)CC2)c1Cl (single isomer, unassigned) [Compound 5] | – | – | > 5000 nM | > 5000 nM | − (“−” represents a fold difference less than 10) | – | – |
| > 1500 nM | > 1500 nM | ≤ 100 nM | Cc1c(-c2c(-c3cccc(F)c3)ncc3snc(O[C@H](Cc4ccccc4OCc4ccnc(-c5ccncc5)n4)C(=O)O)c23)ccc(OCCN2CCN(C)CC2)c1Cl (atropisomer, axis not shown) [Compound 72] | – | – | – | – | + (“+” represents a fold difference of 10 or more) | > 5000 nM | ≤ 1000 nM |
| > 1500 nM | > 1500 nM | ≤ 100 nM | COc1cccc(-c2ncc3snc(O[C@H](Cc4ccccc4OCc4ccnc(-c5ccccc5OC)n4)C(=O)O)c3c2-c2ccc(OCCC3CCN(C)CC3)c(Cl)c2C)c1 (atropisomer, axis not shown) [Compound 45] | – | – | – | – | − (“−” represents a fold difference less than 10) | > 5000 nM | 1000 to 5000 nM |
